One may read the Tmax as the time at which the peak concentration occurs. In general, IC50 refers to the concentration that gives 50% inhibition. A higher IC50 goes with lower potency. By half-life is commonly meant the time needed for the level to fall by half in the phase considered. A high value points to slow loss. As a reminder, the Cmax is the peak of the concentration-time curve.

Molecules are shown by their SMILES. Calls of active or inactive are those of the source. Bounds are passed on as bounds.

One compound from ChEMBL document CHEMBL5532675, “Discovery of 4-Ethoxy-6-chloro-5-azaindazoles as Novel PDE4 Inhibitors for the Treatment of Alcohol Use Disorder and Alcoholic Liver Diseases” (J Med Chem, 2024) can be followed below.

Series [1] in a line: Drug concentration in Sprague-Dawley rat plasma at 10 mg/kg, po administered as single dose for 2 hrs by LC-MS analysis. It counts as ADME, organism-based.
For series [2], the system named is Mus musculus. Nature of the series: Protection against alcoholic liver disease in NIAAA C57BL/6J mouse model assessed as reduction in liver TNF-alpha mRNA level at 1 to 2.5 mg/kg, po preadministered with 1 to 4 % of alcohol for 10 days with subsequent compound addition from day 6 to 11 and further administered with 31.25 % alcohol on day 11 and measured after 9 hrs by RT-qPCR analysis. It counts as functional, organism-based. The following applies: dose 1-2.5 mg/kg, time 5.0 day.

Series [3] relates to Mus musculus. Nature of the series: Protection against alcoholic liver disease in NIAAA C57BL/6J mouse model assessed as reduction in liver IL-1beta mRNA level at 1 to 2.5 mg/kg, po preadministered with 1 to 4 % of alcohol for 10 days with subsequent compound addition from day 6 to 11 and further administered with 31.25 % alcohol on day 11 and measured after 9 hrs by RT-qPCR analysis. It counts as functional, organism-based. Particulars: dose 1-2.5 mg/kg, time 5.0 day. Background: In qPCR the cycle at which signal appears reflects the starting amount.

The nature of series [4]: Tmax in Sprague-Dawley rat at 10 mg/kg, po measured after 24 hrs by LC-MS analysis. It counts as ADME, organism-based. The following applies: in vivo.
A short description of series [5]: Selectivity ratio for inhibition of PDE9A (unknown origin) using FAM-cyclic-3',5'-AMP as substrate to inhibition of PDE4D7 (unknown origin) using FAM-cyclic-3',5'-AMP as substrate.
In series [6] the target is 3',5'-cyclic-AMP phosphodiesterase 4B (Homo sapiens, UniProt Q07343). Nature of the series: Inhibition of PDE4B1 (unknown origin) using FAM-cyclic-3',5'-AMP as substrate incubated for 1 hrs by fluorescence polarization based IMAP assay. In general terms: In fluorescence polarisation assays a small probe gives low polarisation when free and higher when bound to something large.
Sequence of 3',5'-cyclic-AMP phosphodiesterase 4B (Q07343 whole entry): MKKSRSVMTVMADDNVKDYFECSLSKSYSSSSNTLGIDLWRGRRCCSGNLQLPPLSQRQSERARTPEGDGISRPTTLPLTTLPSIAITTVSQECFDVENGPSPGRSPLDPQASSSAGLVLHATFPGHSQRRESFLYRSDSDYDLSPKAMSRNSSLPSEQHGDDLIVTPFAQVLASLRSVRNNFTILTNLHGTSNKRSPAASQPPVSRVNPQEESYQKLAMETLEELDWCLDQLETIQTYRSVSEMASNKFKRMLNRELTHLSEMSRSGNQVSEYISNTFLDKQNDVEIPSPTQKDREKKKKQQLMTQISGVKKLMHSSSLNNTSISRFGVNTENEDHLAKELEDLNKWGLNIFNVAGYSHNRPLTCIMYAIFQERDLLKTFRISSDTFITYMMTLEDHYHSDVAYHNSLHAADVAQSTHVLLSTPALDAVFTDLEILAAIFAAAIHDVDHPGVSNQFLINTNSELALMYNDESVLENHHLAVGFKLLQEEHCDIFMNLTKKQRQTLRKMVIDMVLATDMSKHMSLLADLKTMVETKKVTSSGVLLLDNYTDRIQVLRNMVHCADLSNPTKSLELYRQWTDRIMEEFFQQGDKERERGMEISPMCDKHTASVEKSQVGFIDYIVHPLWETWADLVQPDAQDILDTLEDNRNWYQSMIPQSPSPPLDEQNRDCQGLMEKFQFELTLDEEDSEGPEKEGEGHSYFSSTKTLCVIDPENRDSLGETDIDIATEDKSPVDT

Series [7] is described as follows: Half-life in Sprague-Dawley rat at 2 mg/kg, iv measured after 24 hrs by LC-MS analysis. Type of series: ADME, organism-based. The following applies: in vivo.
Series [8] relates to Mus musculus. Nature of the series: Protection against alcohol-induced motor impairment in C57BL/6J mouse model assessed as decrease in resting time at 1 to 2.5 mg/kg, po preadministered with compound every 24 hrs for 3 times followed by alcohol administration 30 mins post last dose and further treated with compound for 3 days followed by alcohol administration 30 mins post last dose and measured at 2 to 20 mins by open field test. Particulars: dose 1-2.5 mg/kg, time 8702-8720 min. Type of series: functional, organism-based.

The test system of another series is SH-SY5Y. Nature of the series: Cytotoxicity against human SH-SY5Y cells assessed as reduction in cell viability incubated for 48 hrs by MTT assay. It counts as toxicity, cell-based.
A short description of series [9]: Selectivity ratio for inhibition of PDE3B (unknown origin) using FAM-cyclic-3',5'-AMP as substrate to inhibition of PDE4D7 (unknown origin) using FAM-cyclic-3',5'-AMP as substrate.
The nature of series [10]: Selectivity ratio for inhibition of PDE9A (unknown origin) using FAM-cyclic-3',5'-AMP as substrate to inhibition of PDE4B1 (unknown origin) using FAM-cyclic-3',5'-AMP as substrate.
Series [11] concerns Mus musculus. Nature of the series: Protection against alcoholic liver disease in NIAAA C57BL/6J mouse model assessed as improvement of liver injury at 1 to 2.5 mg/kg, po preadministered with 1 to 4 % of alcohol for 10 days with subsequent compound addition from day 6 to 11 and further administered with 31.25 % alcohol on day 11 and measured after 9 hrs by H&E staining based light microscopic analysis. Type of series: functional, organism-based. Particulars: dose 1-2.5 mg/kg, time 5.0 day.

Series [12] in a line: Cmax in Sprague-Dawley rat at 2 mg/kg, iv measured after 24 hrs by LC-MS analysis. Type of series: ADME, organism-based. Particulars: in vivo.
Series [13] in a line: Half-life in Sprague-Dawley rat at 10 mg/kg, po measured after 24 hrs by LC-MS analysis. Type of series: ADME, organism-based. Particulars: in vivo.

Compound `CCOc1nc(Cl)cc2c1cnn2CCCC(=O)O` gave a concentration at 2 h in series [1] of 27000 ng/mL. Moreover, the outcome in the series with Mus musculus [2], in the series with Mus musculus [3], in the series with Mus musculus [8] and in the series with Mus musculus [11] was Active. Moreover, the time to peak (Tmax) in [4] was 4 h. Besides, the Selectivity ratio in series [5], in [9] and in series [10] was more than 267 each time. The compound also displayed a half-inhibitory concentration (IC50) in series [6] of 31 nM. For the same compound, the half-life was 3.65 h in [7] and 9.3 h in series [13]. For the same compound, the Activity result in the series with SH-SY5Y is given as “Non-Toxic”. In series [12], this compound had a Cmax of 23200 ng/mL.
